Experimental findings from ChEMBL document CHEMBL5370569, “Camaldulensals A-C, the First Meroterpenoids Possessing Two Spatially Separated Formyl Phloroglucinols Conjugated to a Terpene Core from the Leaves of Eucalyptus camaldulensis Dehnh” (2023) are described below.

The structures appear in SMILES notation. ≈ marks a conversion by molar mass, not a printed value.

Holding throughout (assay type): functional
Assay [1] deals with Staphylococcus aureus. The experiment in a line: Antibacterial activity against Staphylococcus aureus assessed as bacterial growth inhibtion incubated for 18 hrs by resazurin dye based microdilution assay. (In general: Alamar Blue is a resazurin reagent that responds to reducing activity.)
In assay [2] the test system is Staphylococcus aureus. The experiment in a line: Antibacterial activity against Methicillin-sensitive Staphylococcus aureus ATCC 25923 assessed as bacterial growth inhibtion incubated for 18 hrs by resazurin dye based microdilution assay.
Assay [3] relates to Staphylococcus aureus. The experiment in a line: Antibacterial activity against Methicillin-resistant Staphylococcus aureus ATCC 43300 assessed as bacterial growth inhibtion incubated for 18 hrs by resazurin dye based microdilution assay.
In assay [4] the test system is Staphylococcus aureus. The experiment in a line: Potency index, ratio of eucalrobusone-F MIC to test compound MIC for antibacterial activity against Staphylococcus aureus.

Consider `C=C(C)[C@@H]1C=C2[C@@H](C)CC[C@@H](Cc3c(O)c(C=O)c(O)c(C(=O)CC(C)C)c3O)[C@]2(C)CC1`, for which, in the assay on Staphylococcus aureus [1], the MIC (as a rule, the lowest concentration that inhibits growth of the organism) turned out to be 4.7 µM (≈ 2.14 µg/mL).
For `CC(C)CC(=O)c1c(O)c(C=O)c(O)c(C[C@H]2CC(C(C)C)=C[C@H]3Oc4c(c(O)c(C=O)c(O)c4C(=O)CC(C)C)C[C@@]23C)c1O`, the MIC in the assay on Staphylococcus aureus [2], with Staphylococcus aureus [3] and in the assay on Staphylococcus aureus [1] was 12.6 µM (≈ 8.02 µg/mL) in each case.
Take `CC(=O)CC[C@@H]1[C@H]([C@@H]2C[C@@](C)(C(CC(C)C)c3c(O)c(C=O)c(O)c(C=O)c3O)CC2=O)C1(C)C` (some centres not stated): the MIC in the assay on Staphylococcus aureus [1] was 16.5 µM (≈ 8.03 µg/mL).
Turning to `CC(C)CC(=O)c1c(O)c(C=O)c2c(c1O)C[C@@H]1CC(=O)CC[C@]1(C)O2`, the MIC in the assay on Staphylococcus aureus [2] and in the assay on Staphylococcus aureus [3] was more than 899 µM each time.
Turning to `C=C(C)[C@@H]1CC[C@@]2(C)[C@H](Cc3c(O)c(C=O)c(O)c(C(=O)CC(C)C)c3O)CC[C@@](C)(O)[C@@H]2C1`, the MIC in the assay on Staphylococcus aureus [1] amounted to 19.9 µM (≈ 9.41 µg/mL).
In the case of `CC(C)C[C@@H](c1c(O)c(C=O)c(O)c(C=O)c1O)C1CC[C@@](C)(O)[C@@H]2C[C@H](C(C)(C)O)CC[C@@]12C` (some centres not stated), the MIC in the assay with Staphylococcus aureus [1] came out at 16.8 µM (≈ 8.24 µg/mL).
Regarding `C=C1CC[C@@H]2[C@H]([C@H]3[C@H]1CC[C@]3(C)Cc1c(O)c(C=O)c(O)c(C(=O)CCC)c1O)C2(C)C`, the MIC in the assay on Staphylococcus aureus [1] was determined as 7.1 µM (≈ 3.13 µg/mL).
`CC(C)CC(=O)c1c(O)c(C=O)c(O)c2c1O[C@]1(C)[C@H](C2)C[C@@]2(C(C)C)C[C@H]21`: the MIC in the assay on Staphylococcus aureus [2] and with Staphylococcus aureus [3] was more than 82.9 µM in each case.
Take `CC(C)CC(=O)c1c(O)c(C=O)c(O)c(C[C@H]2CC(C(C)C)=C[C@H]3Oc4c(C=O)c(O)c(C(=O)CC(C)C)c(O)c4C[C@@]23C)c1O`: the MIC with Staphylococcus aureus [2], in the assay with Staphylococcus aureus [3] and with Staphylococcus aureus [1] was 6.3 µM (≈ 4.01 µg/mL) in each case. Further, the Ratio in the assay on Staphylococcus aureus [4] was approximately 2.
With `CC(C)CC(c1c(O)c(C=O)c(O)c(C=O)c1O)C1(C)C=C2CCC1C(C(C)(C)O)CCC2C` (configuration not stated), the MIC in the assay with Staphylococcus aureus [1] worked out at 3.4 µM (≈ 1.61 µg/mL).
The same measure, in the same setting: then `C=C(C)[C@@H]1C=C2[C@@H](C)CC[C@@H](Cc3c(O)c(C=O)c(O)c(C(=O)CCC)c3O)[C@]2(C)CC1`, with 3.5 µM (≈ 1.54 µg/mL); and `CC(C)CC(c1c(O)c(C=O)c(O)c(C=O)c1O)C1(C)CCC2C1C1C(CCC2(C)O)C1(C)C` (configuration not stated), with 3.3 µM (≈ 1.56 µg/mL).
With `Cc1c(O)c(C=O)c(O)c([C@H]2Oc3c(C=O)c(O)c(C(=O)CC(C)C)c(O)c3C[C@@H]2C(C)C)c1O`, the MIC with Staphylococcus aureus [2] and in the assay with Staphylococcus aureus [3] was more than 65.8 µM throughout.
`C=C1CCC2C(C3C1CCC3(C)C(CC(C)C)c1c(O)c(C=O)c(O)c(C=O)c1O)C2(C)C` (configuration not stated): the MIC in the assay on Staphylococcus aureus [1] was 6.9 µM (≈ 3.14 µg/mL).
Still for that read-out and setting: then `CC(C)CC(c1c(O)c(C=O)c(O)c(C=O)c1O)C1(C)CCC2C1=CC(C(C)(C)O)CCC2C` (configuration not stated), with 3.3 µM (≈ 1.56 µg/mL).
On to `CC(C)CC(=O)c1c(O)c(C=O)c(O)c2c1O[C@H]1[C@H]3[C@@H](CC[C@]4(C)Oc5c(c(O)c(C=O)c(O)c5C(=O)CC(C)C)C[C@H]4CC[C@]1(C)C2)C3(C)C`, for which the MIC with Staphylococcus aureus [2] and in the assay on Staphylococcus aureus [3] was more than 45.4 µM each time.
Regarding `CC(C)CC(c1c(O)c(C=O)c(O)c(C=O)c1O)C1(C)/C=C2/CCC2C(C(C)(C)O)CCC1C` (configuration not stated), the MIC with Staphylococcus aureus [1] was 1.7 µM (≈ 0.803 µg/mL).
For the compound `CC(C)C[C@H]1c2c(O)c(C=O)c(O)c(C=O)c2O[C@]2(C)C=CC(=O)C[C@@H]12`, the MIC in the assay with Staphylococcus aureus [2] and with Staphylococcus aureus [3] was more than 89.4 µM throughout.
As for `CC(C)CC(=O)c1c(O)c(C=O)c(O)c(C[C@@]2(C)CC[C@@H]3[C@@H]2[C@H]2[C@@H](CC[C@@]3(C)O)C2(C)C)c1O` [EUCALYPTIN A], the MIC with Staphylococcus aureus [1] stood at 7.4 µM (≈ 3.5 µg/mL).
The same measure, in the same setting: under `CC(C)C[C@@H](c1c(O)c(C=O)c(O)c(C=O)c1O)[C@@]1(C)CC[C@@H]2[C@@H]1[C@H]1[C@@H](CC[C@@]2(C)O)C1(C)C` [MACROCARPAL A] stands 3.3 µM (≈ 1.56 µg/mL).
Regarding `CO[C@H]1/C=C/O[C@@]2(C)Oc3c(C)c(O)c4c(O)c(c(/C=N/N5CCN(C)CC5)c(O)c4c3C2=O)NC(=O)/C(C)=C\C=C\[C@H](C)[C@H](O)[C@@H](C)[C@@H](O)[C@@H](C)[C@H](OC(C)=O)[C@@H]1C` [RIFAMPIN], the MIC in the assay with Staphylococcus aureus [2] and with Staphylococcus aureus [3] was 0.16 µM (≈ 0.132 µg/mL) throughout.
